29 molecules from the SangsterLogP compilation can be followed below.

The logP is the decadic logarithm of the partition coefficient of the neutral form, usually between octanol and water. On to `CCCC(=O)O[C@]1(C(=O)CCl)[C@@H](C)C[C@H]2[C@@H]3CCC4=CC(=O)C=C[C@]4(C)[C@@]3(F)[C@@H](O)C[C@@]21C`, for which the logP is 3.63. Consider `CCC(=O)OCC(=O)[C@@]1(O)CC[C@H]2[C@@H]3CCC4=CC(=O)CC[C@]4(C)[C@H]3[C@@H](O)C[C@@]21C`, for which the logP was found to be 2.8. On to `CCCCC(=O)O[C@]1(C(=O)CO)CC[C@H]2[C@@H]3CCC4=CC(=O)C=C[C@]4(C)[C@H]3[C@@H](O)C[C@@]21C`, for which the logP came to 3.82. The same measure for `CCC(=O)O[C@]1(C(=O)CCl)[C@@H](C)C[C@H]2[C@@H]3CCC4=CC(=O)C=C[C@]4(C)[C@@]3(F)C(=O)C[C@@]21C`: 3.46; for `C[C@]12C[C@H](O)[C@H]3[C@@H](CCC4=CC(=O)CC[C@@]43C)[C@@H]1CC[C@@H]2C(=O)CO`: 2.06; for `CC(=O)[C@@]1(O)[C@@H](C)C[C@H]2[C@@H]3CCC4=CC(=O)C=C[C@]4(C)[C@@]3(F)[C@@H](O)C[C@@]21C`: 2.35. The same measure for `C[C@H]1C[C@H]2[C@@H]3CCC4=CC(=O)C=C[C@]4(C)[C@@]3(F)C(=O)C[C@]2(C)[C@@]1(O)C(=O)CCl`: 2.61; for `CCC(=O)O[C@]1(C(=O)CO)CC[C@H]2[C@@H]3CCC4=CC(=O)CC[C@]4(C)[C@H]3[C@@H](O)C[C@@]21C`: 2.7; for `CCCCC(=O)OCC(=O)[C@@]1(O)[C@@H](C)C[C@H]2[C@@H]3CCC4=CC(=O)C=C[C@]4(C)[C@@]3(F)[C@@H](O)C[C@@]21C`: 3.87. As for `CCCC(=O)O[C@]1(C(=O)CCl)[C@@H](C)C[C@H]2[C@@H]3CCC4=CC(=O)C=C[C@]4(C)[C@@]3(F)C(=O)C[C@@]21C`, the logP came out at 3.76. `CCC(=O)O[C@]1(C(=O)CCl)[C@@H](C)C[C@H]2[C@@H]3CCC4=CC(=O)C=C[C@]4(C)[C@@]3(F)[C@@H](O)C[C@@]21C`: the logP was found to be 3.18. Molecule `CCC(=O)O[C@]1(C(=O)CCl)[C@@H](C)C[C@H]2[C@@H]3CCC4=CC(=O)C=C[C@]4(C)[C@H]3[C@@H](O)C[C@@]21C` came in with a logP of 3.34. `CC12CCC(=O)C=C1CCC1C3CCC(O)(C(=O)CO)C3(C)CC(=O)C12F` (centres undefined) returned a logP of 1.37. Molecule `CCCCC(=O)O[C@]1(C(=O)CO)CC[C@H]2[C@@H]3CCC4=CC(=O)CC[C@]4(C)[C@H]3[C@@H](O)C[C@@]21C` returned a logP of 3.79. Take `CCCC(=O)OCC(=O)C1(O)C(C)CC2C3CCC4=CC(=O)C=CC4(C)C3(F)C(O)CC21C` (centres undefined): the logP was determined as 3.55.

`CCCCC(=O)OCC(=O)[C@@]1(OC(=O)CCCC)[C@@H](C)C[C@H]2[C@@H]3CCC4=CC(=O)C=C[C@]4(C)[C@@]3(F)[C@@H](O)C[C@@]21C` showed a logP of 5.26. Turning to `CCC(=O)O[C@]1(C(=O)CCl)[C@@H](C)C[C@H]2[C@@H]3CCC4=CC(=O)C=C[C@]4(C)[C@@]3(Cl)[C@@H](O)C[C@@]21C`, the logP is 3.28. The molecule `CC(=O)O[C@]1(C(=O)CO)CC[C@H]2[C@@H]3CCC4=CC(=O)CC[C@]4(C)[C@H]3C(=O)C[C@@]21C` displayed a logP of 2.45.

As for `C[C@]12C=CC(=O)C=C1CC[C@@H]1[C@@H]2[C@@H](O)C[C@@]2(C)[C@H]1CC[C@]2(O)C(=O)CO`, the lipophilicity (logP) was 1.58. The molecule `CCCCC(=O)OCC(=O)[C@@]1(O)CC[C@H]2[C@@H]3CCC4=CC(=O)CC[C@]4(C)[C@H]3[C@@H](O)C[C@@]21C` showed a logP of 3.62. In the case of `C[C@H]1C[C@H]2[C@@H]3CCC4=CC(=O)C=C[C@]4(C)[C@@]3(F)[C@@H](O)C[C@]2(C)[C@@]1(O)C(=O)CCl`, the logP stood at 2.48. `CCC(=O)O[C@]1(C(=O)CCl)[C@@H](C)C[C@H]2[C@@H]3CCC4=CC(=O)C=C[C@]4(C)[C@H]3C(=O)C[C@@]21C` showed a logP of 3.3. `CCC(=O)OCC(=O)[C@@]1(O)[C@@H](C)C[C@H]2[C@@H]3CCC4=CC(=O)C=C[C@]4(C)[C@@]3(F)[C@@H](O)C[C@@]21C`: the logP amounted to 3.06. Regarding `CCCC(=O)OCC(=O)[C@@]1(O)CCC2C3CCC4=CC(=O)CC[C@]4(C)C3C(O)C[C@@]21C` (some centres undefined), the lipophilicity (logP) amounted to 2.91. For the molecule `CCC(=O)O[C@]1(C(=O)CBr)[C@@H](C)C[C@H]2[C@@H]3CCC4=CC(=O)C=C[C@]4(C)[C@@]3(F)C(=O)C[C@@]21C`, the logP was 3.55.

Take `CC(=O)OC1(C(=O)CO)CCC2C3CCC4=CC(=O)C=CC4(C)C3C(=O)CC21C` (centres undefined): the logP is 2.43. Molecule `C[C@]12C=CC(=O)C=C1CC[C@H]1[C@@H]3CC[C@](O)(C(=O)CO)[C@@]3(C)C[C@H](O)[C@@]12F` yielded a logP of 1.51.

In turn, `CCCC(=O)O[C@]1(C(=O)CO)CC[C@H]2[C@@H]3CCC4=CC(=O)CC[C@]4(C)[C@H]3[C@@H](O)C[C@@]21C` showed a logP of 3.18. For the molecule `CCC(=O)O[C@]1(C(C)=O)[C@@H](C)C[C@H]2[C@@H]3CCC4=CC(=O)C=C[C@]4(C)[C@@]3(F)C(=O)C[C@@]21C`, the logP is 3.09.
